The values below come from US8198317B2, “Methylenedioxy phenolic compounds and their use to treat disease” (The Ohio State University Research Foundation, priority 2008, dated 2012).

Holding throughout (type): in vivo, human
For one assay, the system named is Cardiovascular Patient. As to the kind of experiment: Treatment of a cardiovascular patient with chest pain (Examples 8-10). To be noted: 1.0 to 100 mg/kg. As for the experimental part: A person presents with uncomfortable pressure, squeezing and pain in the center of their chest as well as in shoulders, arms, neck, jaw and back. […] After being evaluated with an angiography, they are diagnosed as suffering from atherosclerosis with plaque formation in the coronary arteries. The patient is administered a composition comprising an effective amount of 3,4-methylenedioxy-6-nitrophenyl acetate (INV 75) (1.0 to 100-mg/kg). Alternate therapies include, 3,4-methylenedioxy phenyl acetate (INV 73); 3,4-methylenedioxy-6-nitrophenol (INV 74; 3,4-Methylenedioxy 6-nitro phenyl lipoate (INV-7465) or 3,4-Methylenedioxy phenyl lipoate (INV-7065). The composition is optionally administered in conjunction with therapy such as administration of aspirin, a drug to reduce the tendency of platelet aggregation, such as clopidogrel bisulfate, a statin, an angiotensin converting enzyme inhibitor, and/or heparin or a combination thereof, using dosages known to one of ordinary skill in the art. Patient reports improvement in the chest pain, shortness of breath. They are again evaluated with an angiography to measure reduced plaque in their arteries.
A person presents with uncomfortable pressure, squeezing and pain in the center of their chest for less than 30 minutes. They are taken to the cardiac angiography suite for suspected unstable angina. […] After being evaluated with an angiography, they are diagnosed as suffering from atherosclerosis with plaque formation in the coronary arteries. The patient is administered a composition comprising an effective amount of 3,4-Methylenedioxy phenyl lipoate (INV-7065) (1.0 to 100 mg/kg). […] They are again evaluated with an angiography to measure reduced plaque in their arteries.
A person presents with uncomfortable pressure, squeezing and pain in the center of their chest for less than 30 minutes. […] After being evaluated with an angiography, they are diagnosed as suffering from atherosclerosis with plaque formation in the coronary arteries. […] They are again evaluated with an angiography to measure reduced plaque in their arteries.

Assay [1] relates to Humans. Nature of the assay: Prevention or delay of onset of atherosclerosis in humans (Example 23). To be noted: 2 mg/kg to 50 mg/kg iv or im, one to six months. On the procedure:
Individuals with documented risk factors for atherosclerosis and having high plasma cholesterol levels have a ultrasound analysis of the coronary (IVUS), carotid (IMT) or popliteal arteries to establish a baseline measurement. A portion of these individuals are […] administered a composition comprising a compound of the present invention in an acceptable carrier at a dose of 2 mg/kg to 50 mg/kg intravenously (iv) or intramuscular (im) I to 3 times per week over a period of approximately one to six months. The following compounds are administered to these individuals: 3,4-methylenedioxy phenyl acetate (INV 73); 3,4-methylenedioxy-6-nitrophenol (INV 74); 3,4-methylenedioxy-6-nitrophenyl acetate (INV 75); 3,4-Methylenedioxy 6-nitro phenyl lipoate (INV-7465) or 3,4-Methylenedioxy phenyl lipoate (INV-7065). The other individuals receive the carrier alone. A new ultrasound analysis at the end of the treatment period indicates higher levels of plaque in the vessels of individuals receiving the carrier.

Assay [2] concerns Humans. As to the kind of experiment: Treatment of established atherosclerosis in humans (Example 21). To be noted: oral, in excess of 12 months. From the text: Individuals with established atherosclerosis with evidence of plaque in the coronary arteries, carotid arteries or peripheral arteries are known to be at risk for future cardiovascular events such as heart attacks and strokes. These individuals are on treatments such as statins and anti-hypertensive agents such as ACE inhibitors, diuretics or calcium channel blockers. They also will receive an acceptable dose of a composition comprising a compound of the present invention in an acceptable carrier orally and chronically for durations in excess of 12 months. In one study, 3,4-methylenedioxy phenyl acetate (INV 73); 3,4-methylenedioxy-6-nitrophenol (INV 74); 3,4-methylenedioxy-6-nitrophenyl acetate (INV 75); 3,4-Methylenedioxy 6-nitro phenyl lipoate (INV-7465) or 3,4-Methylenedioxy phenyl lipoate (INV-7065) are administered to these individuals. A repeat IVUS measurement is made at the end of the treatment period to assess the effect of the infusion of the composition on coronary atherosclerosis in the target vessel.

`O=C(CCCCC1CCSS1)Oc1cc2c(cc1[N+](=O)[O-])OCO2` (stereo not drawn) [INV-7465, 3,4-Methylenedioxy 6-nitro phenyl lipoate]: the “chest pain, shortness of breath” value with Cardiovascular Patient was “improvement”. Further, in the assay on Humans [1], the “preventing or reducing atherosclerosis (ultrasound, versus carrier alone)” value (from here on “preventing or reducing atherosclerosis”) was “effective”. Moreover, the “plaque in the atherosclerotic coronary artery (IVUS)” value (“plaque” for short) in the assay on Humans [2] is “reduced”.

For `CC(=O)Oc1cc2c(cc1[N+](=O)[O-])OCO2` [INV-75, 3,4-methylenedioxy-6-nitrophenyl acetate], the “chest pain, shortness of breath” value in the assay on Cardiovascular Patient was “improvement”. Further, the “preventing or reducing atherosclerosis” value in the assay on Humans [1] was “effective”. Also, in the assay on Humans [2], the “plaque” value was “reduced”.

Take `O=C(CCCCC1CCSS1)Oc1ccc2c(c1)OCO2` (stereo not drawn) [INV-7065, 3,4-Methylenedioxy phenyl lipoate]: the “chest pain, shortness of breath” value with Cardiovascular Patient is recorded as “improvement”. Also, the “preventing or reducing atherosclerosis” value in the assay on Humans [1] is “effective”. In addition, the “plaque” value in the assay on Humans [2] was “reduced”.
